In PubChem BioAssay (NCI) one finds GI50, TGI and outcome data, which are given here for 50 compounds.

Values joined by “and” are separate entries in the source; they are usually repeats but may differ in a detail not shown here. Identical values can stand only once.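 Grown in 96-well plates, cells were treated for 48 hours with each compound at five concentrations. Insufficient inhibition: endpoint recorded as highest concentration tested. GI50 = concentration required for 50% inhibition of growth. At the TGI there is no net growth.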 Active and inactive are the calls of the source. Cut-off read from the data, not from the text of the source: active = GI50 below about 0.43 µM; inactive = the rest.

The assay relates to MDA-MB-468 breast. Nature of the assay: DTP human tumour cell line panel, 48 h.
Turning to `O=C1C=C(Nc2ccccc2)c2ccccc2C1=O`, the GI50 was 2.04 µM and the TGI was 5.94 µM. In the same order, the values of `O=c1[nH]c2ccccc2n1C1CCNCC1` are more than 100 µM and more than 100 µM. In the same order, the values of `CC(C)=CC[C@@H]1CC2(CC=C(C)C)C(=O)C(OC3(C(=O)c4ccccc4)C(=O)C4(CC=C(C)C)C[C@@H](CC=C(C)C)C(C)(C)C(CC=C(C)C)(C4=O)C3=O)(C(=O)c3ccccc3)C(=O)C(CC=C(C)C)(C2=O)C1(C)C` (stereo partly drawn) are 1.23 µM and 3.28 µM. In the same order, the values of `N#CC1=C(N)Oc2c(sc3c(Br)cccc23)C1c1ccc([N+](=O)[O-])cc1` (stereo not drawn) are 0.318 µM and 7.27 µM. For `Cn1cc(-c2ccc3nc(-c4ccc(CC(=O)Nc5cc(C(C)(C)C)no5)cc4)cnc3c2)cn1`, the 50% growth inhibitory concentration (GI50) was 0.0702 µM and the TGI was more than 3 µM. As to `CCCCn1c(=O)[nH]c(N)c([C@@H]2c3c([nH]c(=O)n(CCCC)c3=O)Oc3ccc4ccccc4c32)c1=O`, the GI50 is 13.4 µM and the TGI came to 33.4 µM. In the same order, the values of `COc1cc2cc(NCc3cccc(Cl)c3)nc(C)c2cc1OC` are 4.06 µM and 24.3 µM. In the same order, the values of `Cn1cc(C2=C(c3ccsc3)C(=O)NC2=O)c2ccccc21` are more than 22.3 µM and more than 25 µM. The matching figures for `O=S(=O)(NCCCNc1cc(-c2cn(-c3ccccc3)nc2-c2cccc(O)c2)ccn1)c1ccc(C(F)(F)F)cc1`: 1.8 µM and 5.55 µM. For `COC(=O)[C@@H](C)C[C@H](Cc1ccccc1)NC(=O)c1nc([C@@H](C[C@H](C(C)C)N(C)C(=O)[C@@H](NC(=O)[C@H]2C[C@H](O)CCN2C)C(C)C)OC(C)=O)sc1C(C)C`, the GI50 was less than 0.00111 µM. As to `CN1CCN(Cc2ccc(NC(=O)c3cncc(C#Cc4cnc(N)c5ncccc45)c3)cc2C(F)(F)F)CC1`, the GI50 was 0.368 µM and the TGI was determined as 1.68 µM. The matching figures for `CC(=O)/C(=C\c1ccc(Cl)cc1)c1ccccc1`: 0.0361 µM and more than 100 µM. The matching figures for `COC(=O)N[C@H]1CCc2cc(OC)c(OC)c(OC)c2-c2ccc(SC)c(=O)cc21`: less than 0.01 µM and more than 100 µM.

As for `C[C@@H]1CN2[C@H]3[C@@H]1CC[C@]31CCC(=O)O[C@]1(C)[C@H]1CC[C@H]3CCC=C3[C@@H]12`, the GI50 is more than 30 µM and the TGI was more than 30 µM. As for `CCN(Cc1ccc(OC)cc1)c1ccc(CO)c(Cl)c1`, the GI50 was 0.0167 µM and the TGI was found to be 0.0413 µM. `COc1ccc2c(c1)[C@@H](NC(C)=O)CCc1cc(OC)c(OC)c(OC)c1-2`: the GI50 is 0.0698 µM and the TGI was more than 100 µM. The matching figures for `O=[N+]([O-])c1ccc(C2=NCCO2)cc1`: more than 100 µM and more than 100 µM. Take `COc1ccc(-c2nc3sc(-c4cc(OC)c(OC)c(OC)c4)nn3c2/C=C2/C(=O)Nc3ccc(F)cc32)cc1`: the GI50 was 2.53 µM and the TGI came to 7.88 µM. As for `CC(C)(C)CC(C)(C)c1ccc(OCCO)cc1`, the outcome was inactive. With `CC(C)=CCC/C(C)=C/CC/C(C)=C/CSC[C@H](NC(=O)CCCCCN1CCN(C)CC1)C(=O)NC1CCCCCC1`, the GI50 was 2.06 µM and the TGI amounted to 4.89 µM.

Regarding `C/C(=C\C(=O)O[C@H]1[C@@H]2[C@H](C)CC[C@H]2[C@]2(C)O[C@@]1(C1CCCCC1)C[C@H]2OC(=O)CO)c1ccccc1`, the GI50 is 6.7 µM and the TGI was 13.4 µM. In the same order, the values of `COC(=O)c1cc2ccc(O)c(O)c2cn1` are 14.1 µM and 27.2 µM. The matching figures for `Nc1c(C(=O)Nc2cccc(Cl)c2)sc2nc3c(cc12)C(=O)CCC3`: 0.0879 µM and 1.3 µM. The matching figures for `COc1cc(/C=C/C(=O)c2cccc(-n3cc(-c4ccccc4)[nH]c3=O)c2)cc(OC)c1OC`: 1.8 µM and 3.54 µM. For `CN1C(=O)C(c2c[nH]c3ccccc23)=C(c2c[nH]c3ccccc23)C1=O`, the GI50 is 5.12 µM and the TGI was found to be 19 µM. Take `Cc1[nH]nc2ccc(-c3nc4cnc(N5CCN(C)CC5)cn4c3Nc3ccc(F)cc3Br)cc12`: the GI50 was 1.57 µM and the TGI turned out to be 3.31 µM. In the same order, the values of `Cn1ncnc1[C@@H]1c2n[nH]c(=O)c3cc(F)cc(c23)N[C@H]1c1ccc(F)cc1` are more than 100 µM and more than 100 µM. The matching figures for `O=C(N/N=C/c1ccc(Cl)cc1)c1ccc(NC(=O)c2ccccn2)cc1`: 23.2 µM and 95.2 µM. The matching figures for `O=C(/C=C\c1ccc(O)c(O)c1)c1ccccc1O`: 2.98 µM and 16.7 µM. Consider `O=C(CCCc1ccc(N(CCCl)CCCl)cc1)NCc1ccccc1`, for which the GI50 was 2.75 µM and the TGI worked out at 10.3 µM.

In the case of `COC(=O)c1c2c(c(C)[n+]([O-])c1C)C(=O)C(NCc1ccc(OC)cc1)=CC2=O`, the GI50 is 1.27 µM and the TGI was determined as 3.06 µM.

In the case of `Sc1cccc2cccnc12`, the GI50 was 2.71 µM and the TGI is 15.6 µM.

Take `COc1ccc(C2=NN(C(N)=S)C(c3ccc4c(c3)OCO4)C2)cc1` (stereo not drawn): the GI50 was 2.68 µM and the concentration for total growth inhibition (TGI) is 11 µM.

On to `O=C1NC(=O)C(c2c[nH]c3ccccc23)=C1c1c[nH]c2ccccc12`, for which the GI50 was 8.28 µM and the TGI was more than 25 µM. Take `CCOc1ccc(N(C)c2ccc(/C=C/C3=[N+](C)c4ccccc4C3(C)C)cc2)cc1`: the GI50 is 0.161 µM and the TGI came out at 1.03 µM. The matching figures for `CCC(=C(c1ccc(OCCN2CCCCC2)cc1)c1ccc(OCCN2CCCCC2)cc1)c1ccc(Cl)cc1`: 3.33 µM and more than 16.7 µM.

Take `CC(C)=CCc1cc2c(cc1O)C1=C(C(=O)C3=C(NCCS3(=O)=O)C1=O)C(C=C(C)C)O2` (stereo not drawn): the GI50 is 3.27 µM and the TGI is 12.8 µM. For the compound `CCOC(=O)c1noc2c1CCc1c-2cn(Cc2ccc(OC)cc2)c1-c1cc(OC)c(OC)c(OC)c1`, the GI50 is 5.62 µM and the TGI is more than 100 µM. In the same order, the values of `Nc1ccc(/C=C/c2ccc3ncccc3c2)cc1` are more than 100 µM and more than 100 µM. With `O=C(NCc1cn(Cc2cccc(Oc3ccccc3)c2)nn1)c1cccnc1Nc1ccc(F)cc1`, the GI50 was 5.17 µM and the TGI was more than 100 µM. On to `CCN1CCN(CCC(=O)Nc2cccc(-n3cc(-c4ccncc4)c(-c4ccc(Cl)c(OC)c4)n3)c2)CC1`, for which the 50% growth inhibitory concentration (GI50) is 0.325 µM and the TGI is 1.41 µM. The matching figures for `CC1(C)N=C(N)N=C(N)N1c1ccc(OCCCNC(=O)Nc2ccc(S(=O)(=O)F)cc2)c(Cl)c1`: 0.818 µM and 29.1 µM.

On to `Cc1ccc(NC(=O)c2ccc(CN3CCN(C)CC3)cc2)cc1Nc1nc(-c2cccnc2)cs1`, for which the GI50 is 2.98 µM and 2.62 µM; the TGI is 15.3 µM and > 10 µM. `COc1cccc2c1nc(C(F)F)n2-c1nc(-c2ccc(NS(=O)(=O)CCN(C)C)cc2)nc(N2CCOCC2)n1`: the GI50 was 0.0711 µM and the TGI came out at 0.492 µM. In the same order, the values of `N#CCCNc1nonc1-c1nc2ccccc2n1CC(=O)c1ccc(N)cc1` are 0.0168 µM and 0.0683 µM.

As for `ClC1=C(Cl)C(Cl)(C2(Cl)C(Cl)=C(Cl)C(Cl)=C2Cl)C(Cl)=C1Cl`, the GI50 was 0.334 µM and the TGI was 1.42 µM. The matching figures for `CC1=C(CCCOC(=O)[C@H](N)CC(C)C)C2=C(C)C3(CC3)[C@@](C)(O)C(=O)C2=C1`: 1.37 µM and 4.6 µM. In the same order, the values of `CC(Nc1ncnc2ccc(-c3cnc(N)nc3)cc12)c1ccccc1` (stereo not drawn) are 1.17 µM and 4.03 µM.

In the case of `CNC(=O)Oc1cc(C(C)C)ccc1Sc1ccc(C(C)C)cc1OC(=O)NC`, the GI50 was 2.34 µM and the TGI turned out to be 9.89 µM.

For the compound `C=CCc1cccc(C=O)c1O`, the GI50 was more than 100 µM and the TGI was more than 100 µM.
